# According to US7534766B2, “Glucuronide metabolites and epimers thereof of tigecycline” (Wyeth, priority 2004, dated 2009):
# Read-outs that look alike come from different tables or passages of the source.
# What was measured:
# [1] = male, human, in vivo
# Procedure: (§1) An open-label, inpatient, multiple-dose tigecycline, single-dose [^14C]tigecycline metabolic disposition and mass balance study was performed in six healthy male volunteers. The clinical protocol called for twelve subjects. Of these twelve, six received the radioactive dose (subjects 1, 4, 5, 6, 7, and 8 with subject 8 later dropping out of the study.) Eligible subjects were selected based on inclusion/exclusion criteria, medical history, physical examination and additional procedures outlined in the study protocol. Each subject received a 100 mg loading dose on the morning of Day 1, followed by a 50 mg maintenance dose every 12 hours for an additional 5 doses. On the morning of study Day 4, six subjects received a single 50 mg dose of [^14C]tigecycline (50 μCi). Each tigecycline dose was administered via a 30-minute intravenous infusion.
# (§2) Serum samples were collected for metabolite profiling prior to tigecycline dosing and 1, 4, 8, 24 and 48 hours following the [^14C]-labeled dose. For metabolite profiling, urine samples were collected at 0-4, 4-8, 8-24 and 24-48 hours and fecal samples were collected up to 48 hours following the [^14C]-labeled dose. Serum and urine samples, and fecal homogenates were shipped on dry ice to the Biotransformation Division of Drug Safety and Metabolism, Wyeth Research, Collegeville, Pa. The details of the sample collection and sample storage are described in the mass balance portion of the study. The 24-48 hour urine and fecal samples for subject #6 were incomplete since the subject withdrew from the study. While samples from this subject were used for metabolite profiling, the samples were not included in the mass balance calculations.
# Individual fecal sample homogenates, prepared from each fecal sample collected up to 48 hours following the [^14C]-labeled tigecycline dose, that contained greater than 8000 dpm/g were analyzed for metabolite profiles. The preparation of the fecal sample homogenates is described in detail in the mass balance portion of the study. Briefly, fecal samples were homogenized with 3 to 4 volumes of ice-cold water by weight at ABC Laboratories (Columbia, Mo.) and shipped frozen to the Biotransformation Division of Drug Safety and Metabolism, Wyeth Research, Collegeville, Pa. For the extraction of radioactivity, fecal homogenates were thawed on ice and aliquots (approximately 1 g) transferred to 15 mL tubes. Three volumes of acetone were added and the samples mixed for 1 minute using a multi-tube vortex mixer. Samples were centrifuged for 15 minutes at 2500 rpm and 4° C. in a Sorvall Super T21 centrifuge. The supernatant was transferred to a fresh tube and the pellet re-suspended with 1 mL of water and 80 μL of 0.5 M EDTA, and re-extracted as described above. The pellet was re-extracted in this manner a total of three times and the supernatants pooled. The supernatant was evaporated to dryness under a stream of nitrogen using a Turbovap Model LV. The residue was re-suspended in 500 μL of water and centrifuged for 10 minutes at 14,000 rpm and room temperature using a Model 5415C Eppendorf centrifuge. The supernatant was transferred to an HPLC vial, assayed for radioactivity and for metabolite profiles using HPLC with radioactivity detection. Selected samples were also analyzed by LC/MS.
# (§3) HPLC analyses were performed using a Waters 2695 Alliance Separation Module (Waters Corp., Milford, Mass.), a Waters Model 2487 dual wavelength UV absorbance detector, set to monitor 350 nm, and was in-line with a Gilson 215 liquid handler (Gilson, Middleton, Wis.) equipped to collect fractions at 20 second intervals.
# [2] = male, human, in vivo; remark: listed apart in the source
# Procedure: as §1, §2
# Urine samples for metabolite profiling were extracted, as discussed below, using a method previously developed and used for rat and dog urine samples. Urine samples that had been collected at various intervals up to 48 hours following the dose of [^14C]tigecycline were thawed on ice prior to extraction. Aliquots (1 mL) of the individual urine samples were transferred to clean tubes and 0.2 M EDTA, for a final concentration of 40 mM EDTA, was added. […] Samples were mixed, centrifuged and the supernatants analyzed for metabolites by HPLC radiochromatography with selected samples also analyzed by LC/MS.
# as §3, with “intervals. Fractions were collected into 96-well deep well Luma plates and analyzed using TopCount NXT. The autosampler temperature was set to 4° C. […]” for “intervals.”
Compound,percent of the fecal radioactivity [1],Estimated Concentrations in fecal homogenate ([1]; 24.2 h),Relative Distribution (%) of radioactivity in extracted fecal homogenate ([1]; 24.2 h),Estimated Concentrations in fecal homogenate ([1]; 24.6 h),Relative Distribution (%) of radioactivity in extracted fecal homogenate ([1]; 24.6 h),Estimated Concentrations in fecal homogenate ([1]; 25.2 h),Relative Distribution (%) of radioactivity in extracted fecal homogenate ([1]; 25.2 h),Estimated Concentrations in fecal homogenate ([1]; 29.8 h),Relative Distribution (%) of radioactivity in extracted fecal homogenate ([1]; 29.8 h),Estimated Concentrations in fecal homogenate ([1]; 30 h),Relative Distribution (%) of radioactivity in extracted fecal homogenate ([1]; 30 h),Estimated Concentrations in fecal homogenate ([1]; 32 h),Relative Distribution (%) of radioactivity in extracted fecal homogenate ([1]; 32 h),Estimated Concentrations in fecal homogenate ([1]; 34.2 h),Relative Distribution (%) of radioactivity in extracted fecal homogenate ([1]; 34.2 h),Estimated Concentrations in fecal homogenate ([1]; 41.8 h),Relative Distribution (%) of radioactivity in extracted fecal homogenate ([1]; 41.8 h),percent of the urinary radioactivity [2],percent of fecal radioactivity after correcting for the epimer formed during the extraction process [1],percent of the radioactivity in urine [2]
"CN(C)c1cc(NC(=O)CNC(C)(C)C)c(O)c2c1C[C@H]1C[C@H]3C(N(C)C)C(O[C@@H]4O[C@H](C(=O)O)[C@@H](O)[C@H](O)[C@H]4O)=C(C(N)=O)C(=O)[C@@]3(O)C(O)=C1C2=O (stereo in doubt) [Metabolite M7, tigecycline glucuronide]",10-26%,0.51 mg-Tigecycline Equivalents/Collection,23.5%,0.40 mg-Tigecycline Equivalents/Collection,9.8%,1.1 mg-Tigecycline Equivalents/Collection,10.4%,2.6 mg-Tigecycline Equivalents/Collection,21.6%,1.2 mg-Tigecycline Equivalents/Collection,13.3%,0.49 mg-Tigecycline Equivalents/Collection,10.4%,1.1 mg-Tigecycline Equivalents/Collection,26.3%,1.8 mg-Tigecycline Equivalents/Collection,21.3%,approximately 20%,–,–
CN(C)c1cc(NC(=O)CNC(C)(C)C)c(O)c2c1C[C@H]1C[C@H]3[C@H](N(C)C)C(O)=C(C(N)=O)C(=O)[C@@]3(O)C(O)=C1C2=O [Tigecycline],28-51%,0.97 mg-Tigecycline Equivalents/Collection,44.9%,2.0 mg-Tigecycline Equivalents/Collection,47.7%,4.3 mg-Tigecycline Equivalents/Collection,39.9%,4.7 mg-Tigecycline Equivalents/Collection,39.1%,4.5 mg-Tigecycline Equivalents/Collection,48.3%,2.4 mg-Tigecycline Equivalents/Collection,50.7%,1.4 mg-Tigecycline Equivalents/Collection,32.8%,2.4 mg-Tigecycline Equivalents/Collection,28.1%,–,39-66%,–
"CC(C)(C)NCC(=O)O [Metabolite M3a, t-butylaminoacetic acid]",4-14%,(0.30) mg-Tigecycline Equivalents/Collection,13.9%,(0.25) mg-Tigecycline Equivalents/Collection,6.2%,(0.81) mg-Tigecycline Equivalents/Collection,7.5%,(0.49) mg-Tigecycline Equivalents/Collection,4.1%,(0.55) mg-Tigecycline Equivalents/Collection,5.9%,(0.20) mg-Tigecycline Equivalents/Collection,4.2%,(0.17) mg-Tigecycline Equivalents/Collection,3.9%,(0.56) mg-Tigecycline Equivalents/Collection,6.7%,–,–,15-37%
"CN(C)c1cc(NC(=O)CNC(C)(C)C)c(O)c2c1C[C@H]1C[C@H]3[C@@H](N(C)C)C(O[C@@H]4O[C@H](C(=O)O)[C@@H](O)[C@H](O)[C@H]4O)=C(C(N)=O)C(=O)[C@@]3(O)C(O)=C1C2=O [Metabolite M6, epimer of tigecycline glucuronide]",up to 9%,0.13 mg-Tigecycline Equivalents/Collection,5.8%,–,–,0.44 mg-Tigecycline Equivalents/Collection,4.1%,0.82 mg-Tigecycline Equivalents/Collection,6.8%,0.52 mg-Tigecycline Equivalents/Collection,5.6%,0.14 mg-Tigecycline Equivalents/Collection,3.0%,0.32 mg-Tigecycline Equivalents/Collection,7.5%,0.75 mg-Tigecycline Equivalents/Collection,8.9%,–,–,less than 1%
